In patent US20120196811A1 (priority 2009, published 2012):

Test system: broiler chickens with combined chronic mycotoxicosis (aflatoxin B1, ochratoxin A, T-2-mycotoxin, fumonisin B1 in feed)
Set-up: species or system broiler chickens of the Cobb-Avian-48 cross
Conditions: in vivo

## OC[C@H]1O[C@@H](O[C@@H]2[C@@H](CO)OC(O)(CO)[C@H]2O)[C@H](O)[C@@H](O)[C@H]1O (mixture of isomers) [lactulose]
  recovery of average daily weight gain per kilogram of component in the compound feed: 25%
